A melting point compilation (Tetko et al.; mined from patent text by program, amines drawn as free bases though some values may be those of a salt)

melting point [°C]	Structure (SMILES)
74 to 75	CCC(O)c1ccc(-c2ccc(Cl)cc2)o1 (stereo not given)
47	CC(C)COc1ccc(Br)cc1OCC(C)C
96 to 99	C=C(C)c1cc(-c2ccc(OCCNS(C)(=O)=O)cc2)n(-c2ccc(OC)nc2)n1
193 to 200	O=C(O)c1ccc(F)cc1Sc1ccccc1
130 to 132	CC(O)(c1ccc(Oc2ccccc2)cc1)c1cccnc1 (stereo not given)
> 200	CN(C)CCCOc1ccc(C[C@H](NC(=O)[C@@H]2CCCN2S(=O)(=O)c2cccs2)C(=O)O)cc1
101 to 104	COc1ccc(CSc2cccc(Cl)c2CN(C)C)cc1
60 to 64	c1ccc(CNc2nccc3[nH]cnc23)cc1
135 to 137	Cc1ccc(S(=O)(=O)OCC2(C)Cc3cc(Cl)cc(O)c3O2)cc1 (stereo not given)
68 to 70	COC(=O)C(C)(C)Cc1ccc(-c2ccc(CC(C)(C)C(=O)OC)cc2)cc1
207	C#CCN(c1ccc(C(=O)NC(CCc2nnn[nH]2)C(=O)O)cc1)C(C)c1cc2c(=O)[nH]c(C)nc2cc1C (stereo not given)
80 to 82	CCCCCCCCCCCCCCCCCCOc1cc(N(CC(=O)OC)CC(=O)OC)cc(S(C)=O)c1 (stereo not given)
128 to 130	COC1Cc2ccc(F)cc2/C1=C/C(N)=O (stereo not given)
221	CC(C)(C)OC(=O)N1CCC(OCc2ccccc2)C1CC(=O)Cn1cnc2cccc(F)c2c1=O (stereo not given)
211 to 212	CC1(C)C(=O)N(c2ccc([N+](=O)[O-])c(C(F)(F)F)c2)C(=O)N1CCCCN1C(=O)N(c2ccc([N+](=O)[O-])c(C(F)(F)F)c2)C(=O)C1(C)C
52 to 53	CCCCCCCCCCCCCCCCOC(=O)c1cccc(N)c1
87 to 90	CC(=O)c1c(C)c2c(c(C)c1O)OC(C)(C)C(C)C2 (stereo not given)
114 to 115	Oc1ccc(O)c(C(F)(F)F)c1
160 to 163	O=C1c2ccccc2C(=O)c2c1c(Cl)c1ccc(Sc3ccccc3)cc1c2Cl
70	O=C(NCCc1ccccc1)[C@@H]1Cc2ccccc2N1S(=O)(=O)c1cccc(CNC(=O)C(F)(F)F)c1
135 to 137	CC(C)c1ccc2c(c1)c(SCc1ccccc1)c(CC(C)(C)C(=O)O)n2Cc1ccc(Cl)cc1
230 to 232	CCCCc1nc2ccccc2n1Cc1ccc(-c2ccccc2-c2nnn[nH]2)cc1
108 to 110	COc1ccc(Cn2c(=O)n([C@H]3CC[C@H](O)CC3)c3ccc(C(F)(F)F)cc32)cc1OC
164 to 166	Clc1cc(Cl)c2nccc(Br)c2c1
130 to 131	CCOC(=O)c1c(CN(CC)CC)nc2cc(OC)c(OC)cc2c1-c1ccc(OC)c(OC)c1
104 to 106	Cc1oncc1C(=O)c1ccccc1[N+](=O)[O-]

melting point [°C]	Structure (SMILES)
83 to 85	CCC(=O)c1ccc(O)c(C)c1
102 to 105	COc1ccc2cc(CC(=O)N3CC=C(c4cccc(C(F)(F)F)c4)CC3)ccc2c1
145 to 146	COc1ccc(-c2coc3ccc(-c4nnc(SCc5cccc(C#N)c5)o4)cc23)cc1
> 300	O=C(O)c1c2c(nc3ccc(F)cc13)-c1ccc(-c3ccccc3F)cc1CC2
78 to 79	CS(=O)(=O)Nc1ccc(CO)cc1Sc1ccc(F)cc1F
96 to 98	NCCn1cnc(-c2ccccc2)c1-c1ccccc1
99 to 100	COC(=O)CS(=O)(=O)Nc1c(F)cc(F)cc1F
230 to 231	CCOC(=O)c1c(O)c2cnc(-c3ccccc3)nc2n(Cc2ccccc2)c1=O
178 to 181	CC(C)OC(=O)N1CCC(c2nc3cc(-c4ccc(C(N)=O)c(Cl)c4)ccc3o2)CC1
110 to 115	COc1cc(C(C)C)ccc1C1(O)C(=O)c2c(NC(C)=O)ccc([N+](=O)[O-])c2C1=O (stereo not given)
158	COc1cc(NC(=O)OC(C)(C)C)c(N)cc1C#Cc1ccccc1
109 to 112	Cc1ccc(OC2CCN(C(=O)C(=O)O)CC2)cc1
189 to 190	COc1ccc(C)cc1NC(=O)Nc1ccc(N2CCN(C(=O)Nc3ccc(OCCO)cc3C)CC2)nc1
97 to 99	CC(C)c1cn2cccc(CO)c2n1
110 to 112	COCOc1cccc2c(=O)[nH]c(CCCN(C)C)cc12
103 to 106	COc1ccc(C2=NN(C3CCN(S(=O)(=O)N(C)C)CC3)C(=O)CC2)cc1OC
129 to 131	CN1CCC(=O)C(=C(c2ccccc2)c2ccccc2)C1
81 to 82	CCOC(=O)CCc1nnc(-c2ccc3c(c2)CCO3)o1
119 to 120	O=[N+]([O-])c1ccc(N2CCC(Nc3ncnc4c3ncn4[C@@H]3C[C@H](CO)[C@@H](O)[C@H]3O)C2)cc1 (stereo not given in full)
50	CC(C)(C)OC(=O)N1CCC[C@H]1C(=O)N1CCN(C(=O)c2ccc(C#N)cc2)CC1
128 to 130	CCN(CCNS(C)(=O)=O)c1ccc(N)c(C)c1
92 to 93	Oc1ccc(CCCc2ccc(O)cc2O)cc1
159 to 165	Cc1ccc(O)c(C)c1C=O
102 to 103	CC[C@H](C)C(=O)O[C@H]1C[C@@H](C)C=C2C=C[C@H](C)[C@H](CCC(=O)C[C@@H](O)CC(=O)O)[C@H]21
203 to 205	CCOc1cc2c(cc1OC)C(c1ccc(C(=O)O)cc1)=N[C@@H]1CCOC[C@H]21

Second part, the compound before the results:

Structure (SMILES)	melting point [°C]
CCn1c2c(c3ccccc31)C(=O)NCC2	203 to 204
Cc1ccc(N(C)CCC(C)NCC(O)c2ccc(O)c(C(N)=O)c2)cc1 (stereo not given)	123 to 126
COC(=O)c1ccc(OC)c2c(C(F)(F)F)c(OC)ccc12	120 to 123
Cc1nnc2ccc(-c3cccc(Cl)c3)nn12	165 to 167
CC(C)COc1c(-c2ccc(S(N)(=O)=O)cc2)cnn(-c2ccc(F)cc2)c1=O	132 to 136
CCCCCCCCCCCCCCCCCCCCCC(=O)OCC1CC1	44
O=C(O)Cc1c(-c2ccccc2)[nH]c2nccnc12	276 to 277
CCCCCCC(C)(C)c1cc(OCc2ccccc2)c(C2=C(C(C)(C)C#N)CCC(C)C2)c(OCc2ccccc2)c1 (stereo not given)	65 to 66
CC1=C(C(=O)OC(C)(C)C)C(c2ccc(F)cc2)C(C(=O)OC(C)(C)C)=C(C)N1	149 to 150
C#CCOc1ccc(-c2ccccc2NC(=O)C(NS(=O)(=O)CC)C(C)C)cc1OC (stereo not given)	97 to 103
O=C(O)c1ccccc1Sc1cccc(OCc2ccc3cc(Cl)ccc3n2)c1	177 to 179
O=C(NCc1ccc(Cl)cc1)c1cnc2cc(I)ccc2c1O	248 to 250
CCOC(=O)C1OC1C(=O)NC(CC(C)C)C(=O)NCCC(C)CO (stereo not given)	92 to 95
O=C(CCN1CCN(c2ccccc2)CC1)Nc1ccc(O)cc1	172 to 174
O=C(O)Cc1ccc(S(=O)(=O)c2ccc(Cl)cc2)cc1	153 to 157
CC(C)c1cccc(C(C)C)c1NC(=O)CN	88 to 95
O=c1c2ccccc2nc2n1CCc1c-2[nH]c2ccc(Cl)cc12	310 to 312
CCc1sc2ncnc(N)c2c1-c1ccc(NC(=O)c2ccccc2)cc1	213 to 214
Cc1c(C#N)sc2nc(-c3ccc([N+](=O)[O-])cc3)nc(N3CCNCC3)c12	250
Cc1c(C(=O)c2cccs2)cccc1C(C)C(=O)O (stereo not given)	100
CC(C)(C)OC(=O)n1[nH]c(=O)c2ccccc21	145
CC(C)(C)OC(=O)CN1CCN(c2ccncc2)C1=O	147 to 148
CCCc1c(OCCCCCOc2ccc3c(=O)cc(C(=O)OCC)oc3c2CCC)ccc(C(C)=O)c1O	90 to 91
CCSCCC(=O)NNC(=O)N1Cc2ccccc2Oc2ccc(Cl)cc21	126 to 129
CCCn1nc2c(N)nc3ccccc3c2c1CC(C)(C)OCCS(C)(=O)=O	197 to 200

Structure (SMILES)	melting point [°C]
CCOC(=O)C1=C(COCCNc2nc(C(=O)NC)cs2)NC(C)=C(C(=O)OC)C1c1ccccc1Cl (stereo not given)	120
CSc1cc(CBr)cc(S(N)(=O)=O)c1Cc1ccccc1	149 to 150
CC(=O)Oc1ccc(C=CC(=O)N(c2ccccc2)c2ccccc2)cc1[N+](=O)[O-]	170 to 172
CC(NC(=O)c1cc(Cl)cc(Br)c1N)C1CC1 (stereo not given)	177
CP(=O)(O)CC1CC(Cl)=NO1 (stereo not given)	116
Cc1ccccc1C(=O)c1c(C)nn(C)c1O	82 to 83
Nc1cc2c(cn1)CC(c1ccc(Cl)cc1Cl)c1ccccc1-2 (stereo not given)	189 to 193
COc1cc2c(cc1O)CCN(c1cc(N)c3cc(OC)c(OC)cc3n1)C2	250 to 251
CCOC(=O)c1nc2c(=O)[nH]c3cc(C(F)(F)F)ccc3n2c1C	> 250
COCc1cc([N+](=O)[O-])ccc1C	45 to 49
CCN(C)C(=O)[C@H]1O[C@@H](n2cnc3c(N)ncnc32)[C@H](O)[C@@H]1O	86 to 90
O=C(O)c1cc(OCCCOc2cccc(-c3ccccc3)c2)cc(OCCCOc2cccc(-c3ccccc3)c2)c1	65 to 69
O=[N+]([O-])c1ccc(NCCc2ccccc2)c(S(=O)(=O)CCO)c1	95 to 95.5
Cc1cccc(-c2c(CBr)n(C)c(=O)n(C)c2=O)c1	136 to 137
CCOC(=O)C1=C(C)NC(C)=C(C(=O)OCC)C1c1cccc(Cl)c1Cl	125 to 126
CS(=O)(=O)N=C(NCCSCc1ccco1)Oc1ccccc1O	110 to 112
CC(C)(C)N=NC(C)(C)C#N	17
CCCCC(CC)(CO)C(=O)O (stereo not given)	45 to 46
CC(c1oc2ccccc2c(=O)c1-c1ccccc1F)n1cnc2c(N)ncnc21 (stereo not given)	247 to 250
CNc1nc(Br)cc(Sc2ccc([N+](=O)[O-])cc2)n1	204 to 205
CN(C)c1ccnc2c(NC(=O)c3c(Cl)cccc3Cl)cccc12	215 to 216
Cc1cccc(OCC2=NCCN2C(=O)Oc2cccc(C)c2C)c1C	126 to 127
Nc1nc(N)c(N)c(OCc2ccccc2)n1	130 to 135
Cn1nc(-c2c(F)cccc2Cl)nc1-c1ccc(COc2ncc(Cl)cc2Cl)c(Cl)c1	153 to 155
